The conditions of data set [1]: cited from earlier work.
Data set [2] deals with GluN2B (Y1472), Pyk2 (Y402), ERK1/2 (Y204/187) in cortical neurons. In words: Tyr phosphorylation of STEP substrates in cortical neuronal cultures (Western blot). Type of data set: cell-based, rat. The conditions noted are these: 1 µM dose, 1 h, relative to vehicle. As to the method:
(§1) Primary cortical neurons were isolated from Sprague Dawley rat embryos (E18) (Charles River Laboratories, Wilmington, MA) as previously described. In some experiments, cortical neurons were made from WT and STEP KO mouse embryos (E18). Neurons were allowed to grow for 18–21 d in CO2 incubator before addition of compounds at indicated doses for 1 h. Immediately following treatments, neurons were lysed in RadioImmuno Precipitation Assay (RIPA) buffer supplied with protease inhibitor cocktail (Roche Applied Science, Indianapolis, IN) and phosphatase inhibitors (NaF and Na3VO4). All experiments were replicated four times with four independent batches of cultures.
(§2) Samples were prepared and resolved by SDS-PAGE, transferred to nitrocellulose membrane, and incubated with phospho-specific antibodies (anti-pY^204/187 ERK1/2, anti-pY^402 Pyk2, anti-pY^1472 GluN2B) or total protein antibodies (anti-ERK2, anti-Pyk2, and anti-NR2B) overnight at 4°C. Immunoreactivity was visualized using a Chemiluminescent substrate kit (Pierce Biotechnology, Rockford, IL) and detected using a G:BOX with the image program GeneSnap (Syngene, Cambridge, UK). All densitometric quantifications were performed using the Genetools program.
In general terms: In western blotting, separated proteins are transferred to a membrane and probed.

In data set [3] the test system is GluN2B (Y1472), Pyk2 (Y402), ERK1/2 (Y204/187) in cortex. In words: Tyr phosphorylation of STEP substrates in cortex of WT mice after i.p. injection. The class given is in vivo, mouse. The settings on record: C57BL/6 mice, 1 mg/kg i.p., 3 h postinjection, relative to vehicle. How it is done: Wild-type, male C57BL/6 mice (3–6 mo) were used for all studies. […] Cortical tissues were dissected out 3 h postinjection and processed for subcellular fractionation. […] Homogenates were centrifuged at 800 × g to remove nuclei and large debris (P1). Synaptosomal fractions (P2) were prepared from S1 by centrifugation at 9,200 × g for 15 min. The P2 pellet was washed twice and was resuspended in TEVP buffer. […] Samples were prepared and resolved by SDS-PAGE, transferred to nitrocellulose membrane, and incubated with phospho-specific antibodies (anti-pY^204/187 ERK1/2, anti-pY^402 Pyk2, anti-pY^1472 GluN2B) or total protein antibodies (anti-ERK2, anti-Pyk2, and anti-NR2B) overnight at 4°C. Immunoreactivity was visualized using a Chemiluminescent substrate kit (Pierce Biotechnology, Rockford, IL) and detected using a G:BOX with the image program GeneSnap (Syngene, Cambridge, UK). All densitometric quantifications were performed using the Genetools program.

Data set [4] deals with GluN2B Y1472, Pyk2 Y402, ERK1/2 Y204/187 in WT and STEP KO cortical neurons. The experiment in a line: Tyr phosphorylation of STEP substrates in WT and STEP KO mouse cortical cultures. The class given is cell-based. The conditions noted are these: STEP KO cultures, 1 h; TC-2153 0.1 and 1 µM, Na3VO4 1 mM. How it is done:
as §1, §2

Like-named read-outs stand apart in the source and are kept apart here.

On to `S1SSSSSSS1` [Compound S8, sulfur (S8)], for which the “Solubility in aqueous solution” value in data set [1] (stated without reference) is given as “poorly soluble”. Further, in data set [2], the “pERK1/2 (Y204/187), phospho-signal normalized to total protein and GAPDH” value is on record as 1.67±0.14; the “pGluN2B (Y1472), phospho-signal normalized to total protein and GAPDH” value is on record as 1.33±0.08; the “pPyk2 (Y402), phospho-signal normalized to total protein and GAPDH” value stood at 1.49±0.12. In data set [3], the “pERK1/2 in cortex (P2 fraction)” value is listed as 1.57±0.13, the “pGluN2B in cortex (P2 fraction)” value came to 1.31±0.11 and the “pPyk2 in cortex (P2 fraction)” value worked out at 1.46±0.14.

Consider `COc1cc(CCN)c2c(c1OC)SSSSS2` [varacin, reference compound], for which the “Solubility in aqueous solution” value in data set [1] is “reasonable solubility in aqueous solution”.

`[Na+].[Na+].[Na+].[O]=[V]([O-])([O-])[O-]` [sodium orthovanadate, reference compound]: the “Tyr phosphorylation of STEP substrates in STEP KO cortical cultures” value in data set [4] is recorded as “further increased the Tyr phosphorylation of these substrates”.

These data come from publication PMC4122355, “Inhibitor of the Tyrosine Phosphatase STEP Reverses Cognitive Deficits in a Mouse Model of Alzheimer's Disease” (PLoS Biology, 2014).
